Values joined by “and” are separate entries in the source; they are usually repeats but may differ in a detail not shown here. Identical values can stand only once. Like-named read-outs stand apart in the source and are kept apart here.
Assay: Phase 1 single dose pharmacokinetic study of eliglustat tartrate in severe renal impairment and matched normal renal function subjects (Example 3)
Type: in vivo, human
Conditions: for AUC / Cmax / AUC(0-inf) / AUC(0-t) / Vd/F / Tmax: human, 100 mg; for AUC: read-out: AUC, geometric mean
Method: A phase 1, open-label, 2-stage, pharmacokinetic and tolerability study of single dose eliglustat tartrate in subjects with renal impairment (RI) (mild, moderate, and severe) and subjects with normal renal function, matched to RI subjects by age, weight, and cytochrome P450 [CYP] 2D6 phenotype was carried out to study the effect of mild, moderate, and severe RI on the pharmacokinetics (PK) of eliglustat.
Methodology: A phase 1, open-label, 2-stage, pharmacokinetic and tolerability study of single dose eliglustat tartrate in subjects with renal impairment (RI) (mild, moderate, and severe) and subjects with normal renal function, matched to RI subjects by age, weight, and cytochrome P450 [CYP] 2D6 phenotype.
Approximately 32 subjects were planned to be enrolled in 2 stages: Stage 1 comprised of 8 subjects with severe RI and 8 subjects with normal renal function, matched by CYP2D6 phenotype, weight, and age. […] Stage 2 was to include 8 subjects with mild and 8 subjects with moderate RI. Each cohort was to enroll at least 6 CYP2D6 extensive metabolizers (EMs). The remaining 2 subjects were to be poor metabolizers (PMs), intermediate metabolizers (IMs) or EMs, enrolled according to the following preference: at least 20 subjects were to be screened for each cohort and if identified, up to 2 PMs were to be enrolled. If less than 2 PMs were identified, up to 2 IMs were to be enrolled for a total of 8 subjects. If less than 2 PMs and IMs were identified, up to 2 additional EMs were to be enrolled for a total of 8 subjects. Allowed concomitant medications included no more than one weak CYP3A inhibitor and one weak CYP2D6 inhibitor, alone or in combination.
CYP2D6 EMs and IMs were to receive a single 100 mg dose of eliglustat tartrate while CYP2D6 PMs were to receive a single 50 mg dose of eliglustat tartrate.
Normal renal function subjects: Male or female subjects, between 18 and 79 years, inclusive, body weight within 15% of the body weight of matched subject with RI, BMI between 18.0 and 37.0 kg/m^2 and a CrCl of >80 mL/min. Healthy subjects were also matched by age and CYP2D6 predicted phenotype based on genotype.
A single 100 mg capsule of eliglustat tartrate (equivalent to 84 mg of eliglustat) was to be administered to CYP2D6 EM or IM subjects with RI and matching healthy subjects.
Pharmacokinetics: Plasma eliglustat concentrations were used to determine the following PK parameters using noncompartmental methods: Maximum plasma concentration observed (Cmax), first time to reach Cmax (tmax), area under the plasma concentration versus time curve calculated using the trapezoidal method from time zero to the time corresponding to the last concentration above the limit of quantification, tlast (AUClast), area under the plasma concentration time curve extrapolated to infinity (AUC), terminal half-life associated with the terminal slope Xz (t1/2z), apparent total body clearance of a drug from plasma (CL/F), and apparent volume of distribution during the terminal phase (VZ/F).
Blood samples were collected at the following time points to assess plasma concentrations of eliglustat: predose, and 0.5, 1, 1.5, 2, 2.5, 3, 4, 6, 8, 10, 12, 24, and 36 hours postdose.
Eliglustat concentrations in plasma were determined using a validated liquid chromatography tandem mass spectrometry method with a lower limit of quantification (LLOQ) of 0.2 ng/mL.
Eliglustat PK parameters were summarized using descriptive statistics for each population group and for each CYP2D6 phenotype. For log-transformed Cmax, AUClast, AUC, t1/2z, CL/F, and Vz/F, the effect of severe RI on eliglustat PK parameters after a single dose of eliglustat tartrate was analyzed using a linear fixed effects model on CYP2D6 EM subjects. Inclusion of population, CYP3A weak inhibitor, age, and weight as covariate was selected manually, choosing the model with the lowest AlC value. After testing, the final model chosen were those with only population as fixed term. […]

[1] = CYP2D6 EM, healthy, N=7, single oral 100 mg eliglustat tartrate, plasma
[2] = CYP2D6 EM, severe RI, N=7, single oral 100 mg eliglustat tartrate, plasma
[3] = CYP2D6 IM, healthy, N=1, single oral 100 mg eliglustat tartrate, plasma
[4] = IM severe RI subject taking escitalopram and amlodipine
[5] = Severe RI vs Healthy, CYP2D6 EM subjects (7 severe RI and 7 healthy)

CCCCCCCC(=O)N[C@H](CN1CCCC1)[C@H](O)c1ccc2c(c1)OCCO2 [eliglustat, N-((1R,2R)-1-(2,3-dihydrobenzo[b][1,4]dioxin-6-yl)-1-hydroxy-3-(pyrrolidin-1-yl)propan-2-yl)octanamide]
CL/F, geometric mean [1]: (834) [55.2] L/h
CL/F, mean ± SD [1]: 963 ± 532 L/h
t1/2z, geometric mean [1]: (8.39) [17.8] h
t1/2z, mean ± SD [1]: 8.50 h and 8.50 ± 1.51 h
tlast, median [1]: 36.00 h
CL/F, geometric mean [2]: (845) [39.2] L/h
CL/F, mean ± SD [2]: 903 ± 354 L/h
t1/2z, geometric mean [2]: (6.51) [13.3] h
t1/2z, mean ± SD [2]: 6.56 h and 6.56 ± 0.876 h
tlast, median [2]: 36.00 h
CL/F [3]: 151 L/h
t1/2z [3]: 9.59 h
tlast [3]: 36.00 h
tlast (CYP2D6 IM, severe RI, N=1, taking escitalopram and amlodipine, single oral 100 mg eliglustat tartrate, plasma): 36.00 h
AUClast ratio, CYP2D6 IM with severe RI vs CYP2D6 EM with severe RI [4]: 35.2 fold
AUClast ratio, CYP2D6 IM with severe RI vs CYP2D6 IM healthy subject [4]: 6.90 fold
AUClast ratio, CYP2D6 IM with severe RI vs healthy CYP2D6 EMs [4]: 32.1 fold
AUClast geometric mean ratio, point estimate [5]: 0.994
CL/F geometric mean ratio, point estimate [5]: 1.014
Vz/F geometric mean ratio, point estimate [5]: 0.787
t1/2z geometric mean ratio, point estimate [5]: 0.776
AUC (both sexes, plasma, oral, CYP2D6 EM, severe RI, coadministered weak CYP3A inhibitor amlodipine, N=5): 98.3 ng·h/mL
Cmax (both sexes, plasma, oral, CYP2D6 EM, severe RI, coadministered weak CYP3A inhibitor amlodipine, N=5, read-out: Cmax, geometric mean): 10.6 ng/mL
AUC (both sexes, plasma, oral, CYP2D6 EM, severe RI, eliglustat tartrate alone, N=2): 104 ng·h/mL
Cmax (both sexes, plasma, oral, CYP2D6 EM, severe RI, eliglustat tartrate alone, N=2, read-out: Cmax, geometric mean): 15.2 ng/mL
AUC(0-inf) (both sexes, plasma, po, CYP2D6 EM, healthy, N=7, single oral 100 mg eliglustat tartrate, plasma, read-out: AUC (extrapolated to infinity), geometric mean): 101 ng·h/mL
AUC(0-inf) (both sexes, plasma, po, CYP2D6 EM, healthy, N=7, single oral 100 mg eliglustat tartrate, plasma, read-out: AUC (extrapolated to infinity), mean ± SD): 118 ± 71.1 ng·h/mL
AUC(0-t) (both sexes, plasma, po, CYP2D6 EM, healthy, N=7, single oral 100 mg eliglustat tartrate, plasma, read-out: AUClast, geometric mean): 96 ng·h/mL
AUC(0-t) (both sexes, plasma, po, CYP2D6 EM, healthy, N=7, single oral 100 mg eliglustat tartrate, plasma, read-out: AUClast, mean ± SD): 112 ± 68.7 ng·h/mL
Cmax (both sexes, plasma, po, CYP2D6 EM, healthy, N=7, single oral 100 mg eliglustat tartrate, plasma, read-out: Cmax, geometric mean): 13.4 ng/mL
Cmax (both sexes, plasma, po, CYP2D6 EM, healthy, N=7, single oral 100 mg eliglustat tartrate, plasma, read-out: Cmax, mean ± SD): 17.6 ± 13.2 ng/mL
Vd/F (both sexes, plasma, po, CYP2D6 EM, healthy, N=7, single oral 100 mg eliglustat tartrate, plasma, read-out: Vz/F, geometric mean): 10100 L
Vd/F (both sexes, plasma, po, CYP2D6 EM, healthy, N=7, single oral 100 mg eliglustat tartrate, plasma, read-out: Vz/F, mean ± SD): 11700 ± 6710 L
Tmax (both sexes, plasma, po, CYP2D6 EM, healthy, N=7, single oral 100 mg eliglustat tartrate, plasma, read-out: tmax, median): 1.5 h
Cmax (both sexes, plasma, po, CYP2D6 EM, severe RI, N=7 (5 taking amlodipine), single oral 100 mg eliglustat tartrate, plasma, read-out: Cmax, mean ± SD): 12.7 ± 4.85 ng/mL
AUC(0-inf) (both sexes, plasma, po, CYP2D6 EM, severe RI, N=7, single oral 100 mg eliglustat tartrate, plasma, read-out: AUC (extrapolated to infinity), geometric mean): 99.8 ng·h/mL
AUC(0-inf) (both sexes, plasma, po, CYP2D6 EM, severe RI, N=7, single oral 100 mg eliglustat tartrate, plasma, read-out: AUC (extrapolated to infinity), mean ± SD): 107 ± 42.1 ng·h/mL
AUC(0-t) (both sexes, plasma, po, CYP2D6 EM, severe RI, N=7, single oral 100 mg eliglustat tartrate, plasma, read-out: AUClast, geometric mean): 95.5 ng·h/mL
AUC(0-t) (both sexes, plasma, po, CYP2D6 EM, severe RI, N=7, single oral 100 mg eliglustat tartrate, plasma, read-out: AUClast, mean ± SD): 102 ± 41.7 ng·h/mL
Cmax (both sexes, plasma, po, CYP2D6 EM, severe RI, N=7, single oral 100 mg eliglustat tartrate, plasma, read-out: Cmax, geometric mean): 11.8 ng/mL
Vd/F (both sexes, plasma, po, CYP2D6 EM, severe RI, N=7, single oral 100 mg eliglustat tartrate, plasma, read-out: Vz/F, geometric mean): 7940 L
Vd/F (both sexes, plasma, po, CYP2D6 EM, severe RI, N=7, single oral 100 mg eliglustat tartrate, plasma, read-out: Vz/F, mean ± SD): 8480 ± 3190 L
Tmax (both sexes, plasma, po, CYP2D6 EM, severe RI, N=7, single oral 100 mg eliglustat tartrate, plasma, read-out: tmax, median): 4 h
AUC(0-inf) (plasma, oral, CYP2D6 IM, healthy, N=1, single oral 100 mg eliglustat tartrate, plasma, read-out: AUC (extrapolated to infinity)): 559 ng·h/mL
AUC(0-t) (plasma, oral, CYP2D6 IM, healthy, N=1, single oral 100 mg eliglustat tartrate, plasma, read-out: AUClast): 520 ng·h/mL
Cmax (plasma, oral, CYP2D6 IM, healthy, N=1, single oral 100 mg eliglustat tartrate, plasma, read-out: Cmax): 54.7 ng/mL
Vd/F (plasma, oral, CYP2D6 IM, healthy, N=1, single oral 100 mg eliglustat tartrate, plasma, read-out: Vz/F): 2090 L
Tmax (plasma, oral, CYP2D6 IM, healthy, N=1, single oral 100 mg eliglustat tartrate, plasma, read-out: tmax): 3 h
AUC(0-t) (plasma, oral, CYP2D6 IM, severe RI, N=1, taking escitalopram and amlodipine, single oral 100 mg eliglustat tartrate, plasma, read-out: AUClast): 3590 ng·h/mL
Cmax (plasma, oral, CYP2D6 IM, severe RI, N=1, taking escitalopram and amlodipine, single oral 100 mg eliglustat tartrate, plasma, read-out: Cmax): 220 ng/mL
Tmax (plasma, oral, CYP2D6 IM, severe RI, N=1, taking escitalopram and amlodipine, single oral 100 mg eliglustat tartrate, plasma, read-out: tmax): 4 h

— patent US10888544B2, “Methods for treating Gaucher disease” (Genzyme Corporation, priority 2017, dated 2021)
